This note sets out measurements from PubChem BioAssay AID1259411 (Chemical Carcinogenesis Research Information System (CCRIS), 2018).

This series relates to rodent carcinogenicity bioassays, tumor incidence. The series can be described thus: CCRIS carcinogenicity studies. The note with it: Dose: 0, Dose: 0. In outline: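 NCI-built, expert-reviewed records of carcinogenicity and related test outcomes (mutagenicity, tumor promotion/inhibition) compiled from published and report sources, historical span 1985-2011, not updated.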

The source made the active and inactive calls. The rule behind the calls is not given here.

In the case of `FC(F)Cl`, the carcinogen call by setting is: (Species: MOUSE, Strain/Sex: SWISS/FEMALE, Route: INHALATION, 1000, 5000 PPM 4 HR/D 5 D/WK FOR 78 WK (STUDY DURATION: LIFETIME), 1000, 5000 PPM 4 HR/D 5 D/WK FOR 78 WK (STUDY DURATION: LIFETIME)) “inactive; negative”; (Species: MOUSE, Strain/Sex: SWISS/MALE, Route: INHALATION, 1000, 5000 PPM 4 HR/D 5 D/WK FOR 78 WK (STUDY DURATION: LIFETIME), 1000, 5000 PPM 4 HR/D 5 D/WK FOR 78 WK (STUDY DURATION: LIFETIME)) “inactive; negative”; (Species: RAT, Strain/Sex: SPRAGUE-DAWLEY/FEMALE, Route: INHALATION, 1000, 5000 PPM 4 HR/D 5 D/WK FOR 104 WK (STUDY DURATION: LIFETIME), 1000, 5000 PPM 4 HR/D 5 D/WK FOR 104 WK (STUDY DURATION: LIFETIME)) “inactive; negative”; (Species: RAT, Strain/Sex: SPRAGUE-DAWLEY/FEMALE, Route: INHALATION, 1000, 5000 PPM IN AIR 4 HR/D 5 D/WK FOR 104 WK (STUDY DURATION: LIFETIME), 1000, 5000 PPM IN AIR 4 HR/D 5 D/WK FOR 104 WK (STUDY DURATION: LIFETIME), Tumor Site: Type of Lesion: [BRAIN WAS ONLY SITE EVALUATED]) “inactive; negative”; (Species: RAT, Strain/Sex: SPRAGUE-DAWLEY/MALE, Route: INHALATION, 1000, 5000 PPM 4 HR/D 5 D/WK FOR 104 WK (STUDY DURATION: LIFETIME), 1000, 5000 PPM 4 HR/D 5 D/WK FOR 104 WK (STUDY DURATION: LIFETIME)) “inactive; negative”; (Species: RAT, Strain/Sex: SPRAGUE-DAWLEY/MALE, Route: INHALATION, 1000, 5000 PPM IN AIR 4 HR/D 5 D/WK FOR 104 WK (STUDY DURATION: LIFETIME), 1000, 5000 PPM IN AIR 4 HR/D 5 D/WK FOR 104 WK (STUDY DURATION: LIFETIME), Tumor Site: Type of Lesion: [BRAIN WAS ONLY SITE EVALUATED]) “inactive; negative”.
As to `CSC(=O)c1cccc2nnsc12`, the carcinogen call runs as follows: (Species: Mouse, Strain/Sex: Tif:MAGf (SPF) (NIH x MAG hybrid)/Female, Route: Oral (diet), 10, 100, 2000, 6000 ppm (0; 1.14; 10.8; 234; 696 mg/kg/day) for 18 mo, 10, 100, 2000, 6000 ppm (0; 1.14; 10.8; 234; 696 mg/kg/day) for 18 mo) “inactive; negative”; (Species: Mouse, Strain/Sex: Tif:MAGf (SPF) (NIH x MAG hybrid)/Male, Route: Oral, 10, 100, 2000, 6000 ppm (0; 1.14; 11.1; 237; 698 mg/kg/day) in feed for 18 mo, 10, 100, 2000, 6000 ppm (0; 1.14; 11.1; 237; 698 mg/kg/day) in feed for 18 mo) “inactive; negative”; (Species: Rat, Strain/Sex: Tif:Ralf (SPF) (Rll/1 x Rll/2 hybrid)/Female, Route: Oral, 20, 200, 2500, 7500 ppm (0; 0.90; 9.08; 111; 388 mg/kg/day) in feed for 2 yr, 20, 200, 2500, 7500 ppm (0; 0.90; 9.08; 111; 388 mg/kg/day) in feed for 2 yr) “inactive; negative”; (Species: Rat, Strain/Sex: Tif:Ralf (SPF) (Rll/1 x Rll/2 hybrid)/Male, Route: Oral, 20, 200, 2500, 7500 ppm (0; 0.77; 7.77; 96.9; 312 mg/kg/day) in feed for 2 years, 20, 200, 2500, 7500 ppm (0; 0.77; 7.77; 96.9; 312 mg/kg/day) in feed for 2 years, Tumor Site: Type of Lesion: Small intestine: Mucinous carcinoma (1/60; 1/59; 2/59 at three highest doses)) “active; positive; dpr reviewer notes that only 1 case of mucinous carcinoma has been see”.
Turning to `Clc1ccc(-c2cc(Cl)c(Cl)cc2Cl)cc1Cl`, the carcinogen call (Species: Rat, Strain/Sex: Harlan Sprague-Dawley/Female (80/Group), Route: Oral, 100, 220, 460, 1000, 4600 ug/kg in corn oil, by gavage, 5 d/wk for 2 yr, 100, 220, 460, 1000, 4600 ug/kg in corn oil, by gavage, 5 d/wk for 2 yr, Tumor Site: Type of Lesion: Liver: cholangiocarcinoma (0/52, 0/51, 0/52, 0/52, 3/52, 36/49, 29/49), hepatocellular adenoma (0/52, 1/51, 1/52, 4/52) was “active; positive”.
`CC1CN(N=O)CC(C)N1` (stereo unspecified): the carcinogen call (Species: RAT, Strain/Sex: F344/FEMALE, Route: ORAL, 100 MG/L IN DRINKING WATER 5 D/WK FOR 29 WK, STUDY DURATION: 40-50 WK, 100 MG/L IN DRINKING WATER 5 D/WK FOR 29 WK, STUDY DURATION: 40-50 WK, Tumor Site: Type of Lesion: THYMUS GLAND: LYMPHOMA OR LEUKEMIA, MULTIPLE SITES: LYMPHOMA OR LEUKEMIA) is “active; positive”.
For the molecule `CC1=C[C@]2(O[C@@H]3O[C@H](CO)[C@@H](O)[C@H](O)[C@H]3O)C[C@@H](C)C(=O)[C@@H]2[C@](C)(O)C12CC2`, the carcinogen call is, setting by setting: (Species: RAT, Strain/Sex: CD-1/FEMALE, Route: INTRAGASTRIC, 100-150 MG/KG BW IN SALINE 2/WK FOR 8 WK THEN ONCE ON WK 9 (TOTAL DOSE: 0; 339 MG) (STUDY DURATION: 300 D), 100-150 MG/KG BW IN SALINE 2/WK FOR 8 WK THEN ONCE ON WK 9 (TOTAL DOSE: 0; 339 MG) (STUDY DURATION: 300 D), Tumor Site: Type of Lesion: MAMMARY GLAND: ADENOCARCINOMA, CARCINOMA, SMALL INTESTINE: ADENOCARCINOMA, BLADDER: PAPILLOMA, Tumor Site: Type of Lesion: MAMMARY GLAND: ADENOCARCINOMA, CARCINOMA, SMALL INTESTINE: ADENOCARCINOMA, BLADDER: PAPILLOMA) “active; positive”; (Species: RAT, Strain/Sex: CD-1/FEMALE, Route: INTRAGASTRIC, 780 MG/KG BW IN SALINE ONCE THEN 0, 100-200 MG/KG 1/WK FOR 8 WK (TOTAL DOSE: 0; 300 MG) (STUDY DURATION: 300 D), 780 MG/KG BW IN SALINE ONCE THEN 0, 100-200 MG/KG 1/WK FOR 8 WK (TOTAL DOSE: 0; 300 MG) (STUDY DURATION: 300 D), Tumor Site: Type of Lesion: MAMMARY GLAND: ADENOCARCINOMA, CARCINOMA, SMALL INTESTINE: ADENOCARCINOMA) “active; positive”.
Consider `CCCCCN(CCCCC)N=O`, for which the carcinogen call was “active; positive” (Species: RAT, Strain/Sex: WISTAR/FEMALE, Route: SUBCUTANEOUS, 62.5, 125, 250 MG/KG BW 1/WK FOR 25 WK (STUDY DURATION: 1 YR), 62.5, 125, 250 MG/KG BW 1/WK FOR 25 WK (STUDY DURATION: 1 YR), Tumor Site: Type of Lesion: NASAL CAVITY: POLYPOID ADENOMA, LUNG: BRONCHIOALVEOLAR ADENOMA) and “active; positive” (Species: RAT, Strain/Sex: WISTAR/MALE, Route: SUBCUTANEOUS, 62.5, 125, 250 MG/KG BW 1/WK FOR 25 WK (STUDY DURATION: 1 YR), 62.5, 125, 250 MG/KG BW 1/WK FOR 25 WK (STUDY DURATION: 1 YR), Tumor Site: Type of Lesion: NASAL CAVITY: POLYPOID ADENOMA, LUNG: BRONCHIOALVEOLAR ADENOCARCINOMA, BRONCHIOALVEOLAR ADENOMA).
Take `S=C([S-])NCCNC(=S)[S-].[Zn+2]`: the carcinogen call reads like this: (Species: MOUSE, Strain/Sex: CD/FEMALE, Route: ORAL, 100, 300 PPM IN DIET FOR 89 WK (STUDY DURATION: 94 WK), 100, 300 PPM IN DIET FOR 89 WK (STUDY DURATION: 94 WK)) “inactive; negative”; (Species: MOUSE, Strain/Sex: CD/FEMALE, Route: ORAL, 1000 PPM IN DIET FOR 88 WK (STUDY DURATION: 88 WK)) “inactive; negative”; (Species: MOUSE, Strain/Sex: CD/MALE, Route: ORAL, 100, 300, 1000 PPM IN DIET FOR 95 WK (STUDY DURATION: 96 WK), 100, 300, 1000 PPM IN DIET FOR 95 WK (STUDY DURATION: 96 WK)) “inactive; negative”; (Species: RAT, Strain/Sex: CD/FEMALE, Route: ORAL, 5, 20, 80, 320 PPM IN DIET FOR 112 WK (STUDY DURATION: 112 WK), 5, 20, 80, 320 PPM IN DIET FOR 112 WK (STUDY DURATION: 112 WK)) “inactive; negative”; (Species: RAT, Strain/Sex: CD/MALE, Route: ORAL, 5, 20, 80, 320 PPM IN DIET FOR 119 WK (STUDY DURATION: 119 WK), 5, 20, 80, 320 PPM IN DIET FOR 119 WK (STUDY DURATION: 119 WK)) “inactive; negative”.
